Experimental data taken from paper PMC8222354 (2021).

Legend:
[1] = system: Tt preQ1-I RNA wildtype (RNA, riboswitch) CUGGGUCGCAGUAACCCCAGUUAACAAAACAAG; experiment: methylation kinetics, anion-exchange HPLC (kobs versus ligand concentration); conditions: 100 mM KCl, 2 mM MgCl2; MES, pH 6.0, 37 °C; apparent Michaelis constant; ligand methylates C15 N3 (covalent methyl transfer)
[2] = system: Tt preQ1-I RNA C15U (RNA, riboswitch) CUGGGUCGCAGUAAUCCCAGUUAACAAAACAAG; experiment: isothermal titration calorimetry; conditions: 100 mM KCl, 2 mM MgCl2; 50 mM MES, pH 6.0, 20 °C
[3] = system: Tt preQ1-I RNA wildtype (RNA, riboswitch) CUGGGUCGCAGUAACCCCAGUUAACAAAACAAG; experiment: isothermal titration calorimetry; conditions: 100 mM KCl, 2 mM MgCl2; 50 mM MES, pH 6.0, 20 °C

Km,app [1] | Kd^ITC [2] [µM] | Kd^ITC [3] [µM] | SMILES
~ 230 μM | 72.2 ± 2.1 |  | COc1nc(N)nc2[nH]cc(CN)c12
 |  | 0.043 ± 0.0019 | NCc1c[nH]c2nc(N)[nH]c(=O)c12
